Columns and labels:
LRRK2^WT [1] = experiment: Western blot LRRK2 degradation in WT MEFs; format: cell-based, mouse; conditions: WT MEFs and LRRK2^G2019S MEFs
Experimental: (§1) Western blot degradation assays for the LRRK2 protacs were performed with WT and PD-associated LRRK2 [G2019S] mouse embryonic fibroblasts (MEFs). The second-generation PROTACs were tested in parallel with the first generation PROTACs SD75, SD82, and SD100. The compounds were tested at 33 nM or […] concentrations for 4 hours or 24 hours, running two biological replicates per condition and achieving quantifications representative of both replicates. Analysis by quantitative immunoblotting was performed with readouts of the total LRRK2 (antibody recognizes epitope in C-terminus of protein), Rab10 pThr73 (physiological substrate) and LRRK2 pSer935 (biomarker phosphorylation site).
(§2) Primary MEFs were generated as described in a previous study (Wiggin et al., Mol. Cell Biol. 2002 April; 22(8):2871-81.). Briefly, the uterine horn was collected from adult female mice at day E12.5 and transferred to a 10 cm tissue culture dish containing cold PBS. Two forceps were used to tear the yolk sacs to isolate each embryo. Forceps were cleaned thoroughly with 70% ethanol between each embryo isolation. The embryos were culled, and a tissue piece was collected in a PCR tube for genotyping. The red tissue of the embryo, which grows to become the heart and liver, was removed. The remainder of the embryo was minced with a scalpel blade and incubated with 7.5 ml trypsin-EDTA solution for 10 minutes in a 37° C. tissue culture CO2 incubator. The dish was removed from the incubator and checked under a light microscope for single cells. 7.5 ml complete media was added to the trypsinised cells, and the cell suspension was transferred to a 15 ml Falcon tube, centrifuged at 1200 rpm for 5 minutes at room temperature. The trypsin was aspirated, the cell pellet was resuspended in 5 ml fresh complete media, and the cell suspension was plated in a 60 mm tissue culture dish and incubated in a 37° C., 5% CO2 tissue culture incubator. The MEFs at this stage were considered as passage 0 and were passaged and expanded for experimental use once the genotype was confirmed by allelic sequencing and immunoblotting. MEFs were cultured in Dulbecco's modified Eagle medium (DMEM) containing 10% (v/v) fetal bovine serum (FBS), 2 mM L-glutamine, 100 U/ml penicillin, and 100 μg/ml streptomycin supplemented with 1× non-essential amino acids and 1 mM sodium pyruvate.
(§3) Culturing and passaging of adherent cell lines were carried out using aseptic technique in CL1 or CL2 (for PBMC isolation) biological safety cabinets. All cells were incubated in a 37° C. incubator with 5% CO2. Cell lines were regularly tested for mycoplasma contamination. For western blot assay, the cells were seeded in 6-well plates. After treating with testing compounds at indicated concentrations and time period, the media was removed and the cells were washed with PBS and lysed in 100 μl ice-cold complete lysis buffer containing 50 mM Tris-HCl pH 7.4, 1 mM EGTA, 10 mM 2-glycerophosphate, 50 mM sodium fluoride, 5 mM sodium pyrophosphate, 270 mM sucrose, supplemented with 1 μg/ml microcystin-LR, 1 mM sodium orthovanadate, complete EDTA-free protease inhibitor cocktail (Roche) and 1% (v/v) Triton X-100. The cells were immediately placed on ice and were scraped and collected into 1.5 ml Eppendorf tubes. Cell lysates were incubated on ice for 10 minutes prior to centrifugation at 15,000 g at 4° C. for 15 minutes. The cell pellet was discarded, and supernatant was collected for analysis by quantitative immunoblotting. For long term storage, the supernatant was flash frozen and stored at −80° C. Protein concentrations of cell lysates were determined using the Bradford assay.
(§4) Cell lysates containing a quarter of a volume of 4× NuPAGE LDS sample buffer (NP0007) supplemented with 5% β-mercaptoethanol, were heated at 95° C. for 5 minutes. […]

Rab10 pThr73 [2] = experiment: Rab10 Thr73 dephosphorylation (immunoblot) in LRRK2^G2019S MEFs; format: cell-based; conditions: Mus musculus, read-out: pRab10 inhibited in LRRK2^G2019S MEFs
Rab10 pThr73 [3] = experiment: Rab10 Thr73 dephosphorylation (immunoblot) in WT MEFs; format: cell-based, mouse; conditions: Mus musculus; for inhibition at 0.033 µM / inhibition at 1 µM: read-out: pRab10 inhibited in WT MEFs; for EC50: dose response, 4 h treatment, read-out: WT MEFs pRab10-dephosphrylation EC50
How it was run: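 Wild-type mouse embryonic fibroblasts in 6-well plates were treated with LRRK2 PROTACs, with two biological replicates per condition. Cells were washed in PBS and lysed on ice in buffer containing phosphatase and protease inhibitors plus 1% Triton X-100, then clarified at 15,000 g. Rab10 Thr73 phosphorylation was measured by quantitative immunoblotting of 15 to 20 μg protein on 4-12% Bis-Tris gels.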

Rab10 pThr73 [4] = experiment: Rab10 Thr73 dephosphorylation (immunoblot) in LRRK2^G2019S MEFs; format: cell-based, mouse; conditions: Mus musculus; for inhibition at 1 µM: read-out: pRab10 inhibited in LRRK2^G2019S MEFs; for EC50: dose response, 4 h treatment, read-out: G2019S MEFs-pRab10-dephosphorylation EC50
LRRK2^WT [5] = target: T1, LRRK2^WT (Mus musculus, UniProt Q5S006); experiment: Western blot LRRK2 degradation in WT MEFs; format: cell-based; conditions: dose response, 4 h treatment; for Dmax: read-out: Dmax on WT MEFs
T1 construct: endogenous in cells; host or cells: primary wild-type mouse embryonic fibroblasts (MEFs)
T1 sequence (Q5S006 whole entry): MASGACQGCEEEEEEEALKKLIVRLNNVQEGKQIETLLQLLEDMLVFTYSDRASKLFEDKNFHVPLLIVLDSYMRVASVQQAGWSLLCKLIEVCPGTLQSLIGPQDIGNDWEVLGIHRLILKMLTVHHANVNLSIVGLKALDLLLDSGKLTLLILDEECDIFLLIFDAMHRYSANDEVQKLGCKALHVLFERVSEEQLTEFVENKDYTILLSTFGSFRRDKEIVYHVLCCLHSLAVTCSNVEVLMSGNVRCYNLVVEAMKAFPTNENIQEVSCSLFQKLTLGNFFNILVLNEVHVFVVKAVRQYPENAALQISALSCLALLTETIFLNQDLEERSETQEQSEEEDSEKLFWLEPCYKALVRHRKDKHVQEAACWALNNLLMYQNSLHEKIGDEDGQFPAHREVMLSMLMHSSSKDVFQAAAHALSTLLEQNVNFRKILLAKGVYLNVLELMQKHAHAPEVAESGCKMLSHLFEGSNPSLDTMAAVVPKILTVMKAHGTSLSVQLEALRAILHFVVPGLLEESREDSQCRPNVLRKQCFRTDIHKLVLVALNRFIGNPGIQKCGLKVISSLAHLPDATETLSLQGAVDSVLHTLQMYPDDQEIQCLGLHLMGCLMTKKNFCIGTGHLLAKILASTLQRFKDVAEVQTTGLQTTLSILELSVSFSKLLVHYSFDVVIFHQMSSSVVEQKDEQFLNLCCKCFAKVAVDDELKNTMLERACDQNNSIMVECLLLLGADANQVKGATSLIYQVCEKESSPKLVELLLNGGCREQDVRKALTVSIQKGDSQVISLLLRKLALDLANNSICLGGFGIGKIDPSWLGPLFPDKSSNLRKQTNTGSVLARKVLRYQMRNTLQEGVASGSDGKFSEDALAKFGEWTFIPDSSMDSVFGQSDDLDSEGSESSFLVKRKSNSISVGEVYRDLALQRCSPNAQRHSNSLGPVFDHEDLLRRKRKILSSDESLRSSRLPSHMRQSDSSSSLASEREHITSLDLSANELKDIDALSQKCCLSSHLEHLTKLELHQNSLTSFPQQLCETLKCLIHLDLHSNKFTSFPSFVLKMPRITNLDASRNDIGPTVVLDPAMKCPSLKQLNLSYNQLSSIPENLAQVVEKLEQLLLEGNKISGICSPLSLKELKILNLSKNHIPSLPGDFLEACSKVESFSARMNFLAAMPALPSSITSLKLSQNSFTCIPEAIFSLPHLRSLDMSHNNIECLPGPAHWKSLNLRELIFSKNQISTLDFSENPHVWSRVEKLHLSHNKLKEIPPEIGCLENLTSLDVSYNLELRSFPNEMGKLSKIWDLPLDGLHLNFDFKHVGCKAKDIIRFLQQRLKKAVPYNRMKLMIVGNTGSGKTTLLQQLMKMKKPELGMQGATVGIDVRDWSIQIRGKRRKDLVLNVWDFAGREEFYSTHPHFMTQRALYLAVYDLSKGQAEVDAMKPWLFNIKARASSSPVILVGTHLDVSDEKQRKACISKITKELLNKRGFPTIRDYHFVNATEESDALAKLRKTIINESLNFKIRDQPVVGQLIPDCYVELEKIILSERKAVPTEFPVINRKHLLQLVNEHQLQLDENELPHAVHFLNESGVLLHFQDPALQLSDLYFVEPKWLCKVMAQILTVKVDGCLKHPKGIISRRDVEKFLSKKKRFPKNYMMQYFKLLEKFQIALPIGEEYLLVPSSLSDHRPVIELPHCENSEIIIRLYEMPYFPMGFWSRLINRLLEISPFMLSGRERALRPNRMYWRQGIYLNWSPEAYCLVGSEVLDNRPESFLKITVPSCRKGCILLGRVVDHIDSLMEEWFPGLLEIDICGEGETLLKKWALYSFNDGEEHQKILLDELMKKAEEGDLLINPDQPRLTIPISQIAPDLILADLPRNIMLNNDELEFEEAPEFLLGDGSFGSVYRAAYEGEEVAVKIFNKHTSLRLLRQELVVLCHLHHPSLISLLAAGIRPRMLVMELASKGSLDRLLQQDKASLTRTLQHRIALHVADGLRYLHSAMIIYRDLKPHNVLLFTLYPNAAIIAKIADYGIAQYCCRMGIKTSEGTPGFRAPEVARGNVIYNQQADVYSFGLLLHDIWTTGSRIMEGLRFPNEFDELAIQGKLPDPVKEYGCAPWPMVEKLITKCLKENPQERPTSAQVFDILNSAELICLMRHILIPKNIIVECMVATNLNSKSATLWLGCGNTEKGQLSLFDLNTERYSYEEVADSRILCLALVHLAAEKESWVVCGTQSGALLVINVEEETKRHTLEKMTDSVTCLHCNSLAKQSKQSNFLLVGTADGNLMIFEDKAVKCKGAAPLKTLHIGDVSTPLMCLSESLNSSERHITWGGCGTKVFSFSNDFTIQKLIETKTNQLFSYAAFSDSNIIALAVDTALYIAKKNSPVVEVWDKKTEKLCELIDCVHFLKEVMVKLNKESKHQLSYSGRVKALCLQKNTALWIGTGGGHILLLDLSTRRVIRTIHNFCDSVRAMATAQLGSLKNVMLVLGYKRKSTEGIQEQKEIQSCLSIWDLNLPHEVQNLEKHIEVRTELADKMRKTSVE
Experimental: as §1, §2, §3, §4

LRRK2^G2019S = target: T2, LRRK2^G2019S (Mus musculus, UniProt Q5S006, G2019S); experiment: Western blot LRRK2 degradation in LRRK2^G2019S MEFs; format: cell-based; conditions: dose response, 4 h treatment; for Dmax: read-out: Dmax on G2019S MEFs
T2 construct: endogenous in cells; host or cells: LRRK2[G2019S] mouse embryonic fibroblasts (MEFs)
T2 sequence (Q5S006 whole entry G2019S): as the sequence (Q5S006 whole entry) above, with G2019S counted along it
Experimental: as §1, with “The” for “Western blot degradation assays for the LRRK2 protacs were performed with WT and PD-associated LRRK2 [G2019S] mouse embryonic fibroblasts (MEFs). The”
as §2
Culturing and passaging of adherent cell lines were carried out using aseptic technique in CL1 or CL2 (for PBMC isolation) biological safety cabinets. All cells were incubated in a 37° C. incubator with 5% CO2. Cell lines were regularly tested for mycoplasma contamination. For western blot assay, the cells were seeded in 6-well plates. […] The cells were immediately placed on ice and were scraped and collected into 1.5 ml Eppendorf tubes. Cell lysates were incubated on ice for 10 minutes prior to centrifugation at 15,000 g at 4° C. for 15 minutes. The cell pellet was discarded, and supernatant was collected for analysis by quantitative immunoblotting. For long term storage, the supernatant was flash frozen and stored at −80° C. Protein concentrations of cell lysates were determined using the Bradford assay.
Cell lysates containing a quarter of a volume of 4× NuPAGE LDS sample buffer (NP0007) supplemented with 5% β-mercaptoethanol, were heated at 95° C. for 5 minutes. 15 to 20 μg of samples were loaded onto pre-cast 4-12% Bis-Tris midi 20W or 26W gels (Thermofisher Scientific®, Cat #WG1402BOX or WG1403BOX) and resolved at 130 V for 2 hours with NuPAGE MOPS SDS running buffer (Thermofisher Scientific® Cat #NP0001-02). Proteins were electrophoretically transferred onto a 0.45 μm nitrocellulose membrane (GE Healthcare, Amersham Protran® Supported 0.45 mm NC) at 90 V for 90 min on ice in transfer buffer (48 mM Tris base and 39 mM glycine supplemented with 20% methanol). The transferred membrane was blocked with 5% (w/v) skim milk powder dissolved in tris-buffered saline with tween (TBS-T) (50 mM Tris base, 150 mM sodium chloride (NaCl), 0.1% (v/v) Tween-20) at room temperature for 1 hour.

CNc1nc(Nc2ccc(C(=O)N3CCN(CCCSC(C)(C)[C@H](NC(=O)C4(F)CC4)C(=O)N4C[C@H](O)C[C@H]4C(=O)NCc4ccc(-c5scnc5C)cc4)CC3)cc2OC)ncc1Cl [SD82, (2S,4R)-1-((R)-3-((3-(4-(4-((5-chloro-4-(methylamino)pyrimidin-2-yl)amino)-3-methoxybenzoyl)piperazin-1-yl)propyl)thio)-2-(1-fluorocyclopropane-1-carboxamido)-3-methylbutanoyl)-4-hydroxy-N-(4-(4-methylthiazol-5-yl)benzyl)pyrrolidine-2-carboxamide]
LRRK2 degradation (in words) (LRRK2^WT [1]): moderate LRRK2 degradation
inhibition at 0.033 µM (Rab10 pThr73 [2]; 33 nM/4 h treatment): 0 to 60%
inhibition at 0.033 µM (Rab10 pThr73 [2]; 33 nM/24 h treatment): 0 to 70%
inhibition at 0.033 µM (Rab10 pThr73 [3]; 33 nM/4 h treatment): 0 to 25%
inhibition at 1 µM (Rab10 pThr73 [3]; 1 μM/4 h treatment): 18 to 90%
inhibition at 1 µM (Rab10 pThr73 [3]; 1 μM/24 h treatment): 30 to 90%
inhibition at 1 µM (Rab10 pThr73 [4]; 1 μM/4 h treatment): 30 to 95%

CNc1nc(Nc2ccc(C(=O)N3CCN(Cc4ccc(CSC(C)(C)[C@H](NC(=O)C5(F)CC5)C(=O)N5C[C@H](O)C[C@H]5C(=O)NCc5ccc(-c6scnc6C)cc5)cc4)CC3)cc2OC)ncc1Cl [SD100, (2S,4R)-1-((R)-3-((4-((4-(4-((5-chloro-4-(methylamino)pyrimidin-2-yl)amino)-3-methoxybenzoyl)piperazin-1-yl)methyl)benzyl)thio)-2-(1-fluorocyclopropane-1-carboxamido)-3-methylbutanoyl)-4-hydroxy-N-(4-(4-methylthiazol-5-yl)benzyl)pyrrolidine-2-carboxamide]
LRRK2 degradation (in words) (LRRK2^WT [1]): moderate LRRK2 degradation
inhibition at 0.033 µM (Rab10 pThr73 [2]; 33 nM/4 h treatment): 0 to 60%
inhibition at 0.033 µM (Rab10 pThr73 [2]; 33 nM/24 h treatment): 0 to 70%
inhibition at 0.033 µM (Rab10 pThr73 [3]; 33 nM/4 h treatment): 0 to 25%
inhibition at 1 µM (Rab10 pThr73 [3]; 1 μM/4 h treatment): 18 to 90%
inhibition at 1 µM (Rab10 pThr73 [3]; 1 μM/24 h treatment): 30 to 90%
inhibition at 1 µM (Rab10 pThr73 [4]; 1 μM/4 h treatment): 30 to 95%

CNc1nc(Nc2ccc(C(=O)N3CCN(C[C@H]4CC[C@H](CSC(C)(C)[C@H](NC(=O)C5(F)CC5)C(=O)N5C[C@H](O)CC5C(=O)NCc5ccc(-c6scnc6C)cc5F)CC4)CC3)cc2OC)ncc1Cl (stereo partly drawn) [XL02047, (2S,4R)-1-(®-3-((((1r,4R)-4-((4-(4-((5-chloro-4-(methylamino)pyrimidin-2-yl)amino)-3-methoxybenzoyl)piperazin-1-yl)methyl)cyclohexyl)methyl)thio)-2-(1-fluorocyclopropane-1-carboxamido)-3-methylbutanoyl)-N-(2-fluoro-4-(4-methylthiazol-5-yl)benzyl)-4-hydroxypyrrolidine-2-carboxamide]
DC50 (LRRK2^WT [5]): 45 nM
Dmax (LRRK2^WT [5]): 78%
inhibition at 0.033 µM (Rab10 pThr73 [2]; 33 nM/4 h treatment): 0 to 90%
inhibition at 0.033 µM (Rab10 pThr73 [2]; 33 nM/24 h treatment): 30 to 90%
inhibition at 0.033 µM (Rab10 pThr73 [3]; 33 nM/4 h treatment): 0 to 70%
inhibition at 0.033 µM (Rab10 pThr73 [3]; 33 nM/24 h treatment): 0 to 80%
inhibition at 1 µM (Rab10 pThr73 [3]; 1 μM/4 h treatment): 80 to 100%
inhibition at 1 µM (Rab10 pThr73 [3]; 1 μM/24 h treatment): 80 to 100%
EC50 (Rab10 pThr73 [3]): 228 nM
DC50 (LRRK2^G2019S): 60 nM
Dmax (LRRK2^G2019S): 79%
inhibition at 1 µM (Rab10 pThr73 [4]; 1 μM/4 h treatment): 10 to 100%
inhibition at 1 µM (Rab10 pThr73 [4]; 1 μM/24 h treatment): 80 to 100%
EC50 (Rab10 pThr73 [4]): 73 nM

CNc1nc(Nc2ccc(C(=O)N3CCN(C[C@H]4CC[C@H](CSC(C)(C)[C@H](NC(=O)C5(F)CC5)C(=O)N5C[C@H](O)CC5C(=O)N[C@@H](C)c5ccc(-c6scnc6C)cc5)CC4)CC3)cc2OC)ncc1Cl (stereo partly drawn) [XL02049, (2S,4R)-1-((R)-3-((((1R,4R)-4-((4-(4-((5-chloro-4-(methylamino)pyrimidin-2-yl)amino)-3-methoxybenzoyl)piperazin-1-yl)methyl)cyclohexyl)methyl)thio)-2-(1-fluorocyclopropane-1-carboxamido)-3-methylbutanoyl)-4-hydroxy-N—((S)-1-(4-(4-methylthiazol-5-yl)phenyl)ethyl)pyrrolidine-2-carboxamide]
DC50 (LRRK2^WT [5]): 40 nM
Dmax (LRRK2^WT [5]): 76.5%
inhibition at 0.033 µM (Rab10 pThr73 [2]; 33 nM/4 h treatment): 0 to 90%
inhibition at 0.033 µM (Rab10 pThr73 [2]; 33 nM/24 h treatment): 30 to 90%
inhibition at 0.033 µM (Rab10 pThr73 [3]; 33 nM/4 h treatment): 0 to 70%
inhibition at 0.033 µM (Rab10 pThr73 [3]; 33 nM/24 h treatment): 0 to 80%
inhibition at 1 µM (Rab10 pThr73 [3]; 1 μM/4 h treatment): 80 to 100%
inhibition at 1 µM (Rab10 pThr73 [3]; 1 μM/24 h treatment): 80 to 100%
EC50 (Rab10 pThr73 [3]): 65 nM
DC50 (LRRK2^G2019S): 27 nM
Dmax (LRRK2^G2019S): 90%
inhibition at 1 µM (Rab10 pThr73 [4]; 1 μM/4 h treatment): 10 to 100%
inhibition at 1 µM (Rab10 pThr73 [4]; 1 μM/24 h treatment): 80 to 100%
EC50 (Rab10 pThr73 [4]): 31 nM
